Each structure is given as a SMILES string.

The data set is described as follows: Differential thermal analysis (decomposition temperature). In kind it is physicochemical. The settings on record: ° C. for 2% weight loss. The procedure:
The decomposition temperature and the average particle diameter are determined on a flame retardant of the prior art—Exolit® OP 1230.
With `COC(=O)CCP(C)(=O)[O-].COC(=O)CCP(C)(=O)[O-].COC(=O)CCP(C)(=O)[O-].[Al+3]` [Example 10, H3C—P(═O)(OAl1/3)—CH2—CH2—CO2CH3], the “DTA (decomposition in differential thermal analysis)” value came to 330 °C.
As for `COC(=O)CCP(C)(=O)[O-].COC(=O)CCP(C)(=O)[O-].[Zn+2]` [Example 12, H3C—P(═O)(OZn1/2)—CH2—CH2—CO2CH3], the “DTA (decomposition in differential thermal analysis)” value was determined as 334 °C.
As to `CCCCCCCCOC(=O)CCP(C)(=O)[O-].CCCCCCCCOC(=O)CCP(C)(=O)[O-].[Zn+2]` [Example 14, H3C—P(═O)(OZn1/2)—CH2—CH2—CO2C8H17], the “DTA (decomposition in differential thermal analysis)” value came to 323 °C.
Regarding `COC(=O)CCP(C)(=O)[O-].COC(=O)CCP(C)(=O)[O-].[Mg+2]` [Example 11, H3C—P(═O)(OMg1/2)—CH2—CH2—CO2CH3], the “DTA (decomposition in differential thermal analysis)” value is 282 °C.
As for `COC(=O)CCP(C)(=O)[O-].COC(=O)CCP(C)(=O)[O-].[Ca+2]` [Example 13, H3C—P(═O)(OCa1/2)—CH2—CH2—CO2CH3], the figure is 317 °C.

(Values after US7838580B2, “Salts of alkyl esters of carboxyethyl(alkyl)phosphinic acid” (Clariant Finance (BVI) Limited, priority 2006, dated 2010).)
